Laboratory results reported in US20190328845A1, “IN VIVO SYNTHESIS OF ELASTIC FIBER” (ALLERGAN PHARMACEUTICALS INTERNATIONAL LIMITED, priority 2011, published 2019).

Legend:
Dermal human fibroblasts = test: Elastic fiber formation in the presence of lysyl oxidase inhibitor; assay type: cell-based; details: BAPN added at various time points relative to tropoelastin addition; 72 hours culture
Experimental: The effect of the lysyl oxidase inhibitor BAPN on elastic fiber formation in this system was studied.
Dermal human fibroblasts were grown for 12 days prior to tropoelastin addition as described. Cells were cultured for a further 72 hours after tropoelastin addition. BAPN was added at various time points relative to tropoelastin addition. Samples were stained for elastin and nuclei as described above.

human skin fibroblasts = test: In vitro assay system for elastic fiber synthesis, human skin fibroblasts; assay type: cell-based; details: 7 days
Experimental: Cells were cultured in Dulbecco's Modified Eagle Medium High Glucose (DMEM; Invitrogen) containing 10% fetal bovine serum (FBS; Invitrogen) and 1% (v/v) penicillin/streptomycin (Invitrogen). Media were changed every 2-3 days. Cells were incubated at 37° C. and 5% CO2. To assess the capacity of cells to form elastin fibers 1×10^5 cells were seeded onto glass coverslips in 12 well culture plates. Ten to 17 days post-seeding full-length tropoelastin (Elastagen), or an alternative elastin-derived protein, in PBS was filter-sterilized and added to the cell cultures. Alternative elastin-derived proteins included human skin elastin peptides (Elastin Products Company; HSP72), a C-terminal tropoelastin deletion construct ARKRK (Weiss lab) and a C-terminal tropoelastin substitution construct containing RGDS (Weiss lab). Fiber formation was also assessed in the presence of 50 μM blebbistatin (Sigma). For experiments assessing the effect of repeated tropoelastin additions the protein was added 10, 17 and 24 days post-seeding. Cell matrix thickness was determined by averaging the number of 0.41 μm z slices required to image from the uppermost nuclei to the bottom of the sample in ten randomly chosen fields of view.
At set time points after tropoelastin addition, cells were fixed with either 3% (w/v) formaldehyde or 4% (w/v) paraformaldehyde for 20 min and quenched with 0.2 M glycine. […]

N#CCCN [BAPN]
elastic fiber formation in the presence of BAPN (Dermal human fibroblasts): prevents fiber formation

Cc1ccc2c(c1)C(=O)C1(O)CCN(c3ccccc3)C1=N2 (stereo not drawn) [blebbistatin]
elastin fiber formation in the presence of blebbistatin (human skin fibroblasts; 50 μM blebbistatin added at the same time as 125 μg/ml tropoelastin, neonatal fibroblasts): substantially impaired

+RGDS
elastin network formation (human skin fibroblasts; 125 μg/ml protein added to primary human neonatal skin fibroblasts (NHF8909) 12 days post-seeding): Spherule rather than fiber deposition
